Laboratory results as given in patent publication US7291641B2, “Derivatives of heterocycles with 5 members, their preparation and their use as medicaments” (Societe de Conseils de Recherches et d'Applications …, priority 1999, dated 2007).

Row | melting point [°C] | Compound
1 | 60 to 62 | CC(C)(C)c1cn(Cc2ccccc2)c([C@@H](Cc2c[nH]c3ccccc23)NCc2ccccc2)n1 [Example 39, (1R)-N-benzyl-1-(1-benzyl-4-tert-butyl-1H-imidazol-2-yl)-2-(1H-indol-3-yl)ethanamine]
2 | 138 to 140 | c1ccc(-c2c[nH]c([C@@H](Cc3c[nH]c4ccccc34)Nc3ncccn3)n2)cc1 [Example 44, N-[(1R)-2-(1H-indol-3-yl)-1-(4-phenyl-1H-imidazol-2-yl)ethyl]-2-pyrimidinamine]
3 | 110 to 112 | CN(Cc1ccccc1)[C@H](Cc1c[nH]c2ccccc12)c1nc(-c2ccccc2)c[nH]1 [Example 46, (1R)-N-benzyl-2-(1H-indol-3-yl)-N-methyl-1-(4-phenyl-1H-imidazol-2-yl)ethanamine]
4 | 228 to 230 | c1ccc(CN[C@H](Cc2ccccc2)c2nc(-c3ccccc3)c[nH]2)cc1 [Example 48, (1R)-N-benzyl-2-phenyl-1-(4-phenyl-1H-imidazol-2-yl)ethanamine]
5 | 104 to 106 | CC(C)(C)OC(=O)N[C@H](Cc1c[nH]c2ccccc12)c1nc(C(C)(C)C)c[nH]1 [Example 50, tert-butyl (1R)-1-(4-tert-butyl-1H-imidazol-2-yl)-2-(1H-indol-3-yl)-ethylcarbamate]
6 | 186 to 188 | CC(C)(C)CC(=O)NCCc1nc(-c2ccc(-c3ccccc3)cc2)c[nH]1 [Example 61, N-[2-(4-[1,1′-biphenyl]-4-yl-1H-imidazol-2-yl)ethyl]-3,3-dimethyl-butanamide]
7 | 100 to 102 | c1ccc(CN[C@H](Cc2c[nH]c3ccccc23)c2nc(-c3ccccc3)c[nH]2)cc1 [Example 88, (1R)-N-benzyl-2-(1H-indol-3-yl)-1-(4-phenyl-1H-imidazol-2-yl)ethanamine]
8 | 118 to 120 | c1ccc(CN[C@@H](Cc2c[nH]c3ccccc23)c2nc(-c3ccccc3)c[nH]2)cc1 [Example 93, (1S)-N-benzyl-2-(1H-indol-3-yl)-1-(4-phenyl-1H-imidazol-2-yl)ethanamine]
9 | 120 to 122 | Cc1[nH]c([C@@H](Cc2c[nH]c3ccccc23)NCc2ccccc2)nc1-c1ccccc1 [Example 95, (1R)-N-benzyl-2-(1H-indol-3-yl)-1-(5-methyl-4-phenyl-1H-imidazol-2-yl)ethanamine]
10 | 208 to 210 | CC(C)(C)OC(=O)N[C@H](Cc1c[nH]c2ccccc12)c1nc(-c2ccccc2)c[nH]1 [Example 96, tert-butyl (1R)-2-(1H-indol-3-yl)-1-(4-phenyl-1H-imidazol-2-yl)-ethylcarbamate]
11 | 218 to 220 | O=C(N[C@H](Cc1c[nH]c2ccccc12)c1nc(-c2ccccc2)c[nH]1)c1ccccc1 [Example 98, N-[(1R)-2-(1H-indol-3-yl)-1-(4-phenyl-1H-imidazol-2-yl)ethyl]benzamide]
12 | 105 to 108 | O=C(N[C@H](Cc1c[nH]c2ccccc12)c1nc(-c2ccccc2)c[nH]1)OCc1ccccc1 [Example 99, benzyl (1R)-2-(1H-indol-3-yl)-1-(4-phenyl-1H-imidazol-2-yl)ethylcarbamate]
13 | 134 to 136 | c1ccc(CN[C@H](Cc2c[nH]c3ccccc23)c2nc(-c3ccccc3)cs2)cc1 [Example 100, (1R)-N-benzyl-2-(1H-indol-3-yl)-1-(4-phenyl-1,3-thiazol-2-yl)ethanamine]
14 | 108 to 110 | O=C(N[C@H](Cc1c[nH]c2ccccc12)c1nc(-c2ccccc2)cs1)c1ccccc1 [Example 101, N-[(1R)-2-(1H-indol-3-yl)-1-(4-phenyl-1,3-thiazol-2-yl)-ethyl]benzamide]
15 | 220 to 222 | CC(C)(C)OC(=O)N[C@H](Cc1c[nH]c2ccccc12)c1nc(-c2ccc([N+](=O)[O-])cc2)c[nH]1 [Example 102, tert-butyl (1R)-2-(1H-indol-3-yl)-1-[4-(4-nitrophenyl)-1H-imidazol-2-yl]-ethylcarbamate]
16 | 170 to 172 | CC(C)(C)OC(=O)NCc1nc(-c2ccccc2)c[nH]1 [Example 103, tert-butyl (4-phenyl-1H-imidazol-2-yl)methylcarbamate]
17 | 140 to 142 | CC(C)(C)OC(=O)NCc1nc(-c2ccccc2)cn1Cc1ccccc1 [Example 104, tert-butyl (1-benzyl-4-phenyl-1H-imidazol-2-yl)methylcarbamate]
18 | 94 to 96 | c1ccc(OCCN[C@H](Cc2c[nH]c3ccccc23)c2nc(-c3ccccc3)c[nH]2)cc1 [Example 108, (1R)-2-(1H-indol-3-yl)-N-(2-phenoxyethyl)-1-(4-phenyl-1H-imidazol-2-yl)ethanamine]
19 | 152 to 154 | c1ccc(CN[C@H](Cc2csc3ccccc23)c2nc(-c3ccccc3)c[nH]2)cc1 [Example 111, (1R)-2-(1-benzothien-3-yl)-N-benzyl-1-(4-phenyl-1H-imidazol-2-yl)ethanamine]
20 | 124 to 126 | c1ccc(OCCN[C@H](Cc2c[nH]c3ccccc23)c2nc(-c3ccccc3)cs2)cc1 [Example 112, (1R)-2-(1H-indol-3-yl)-N-(2-phenoxyethyl)-1-(4-phenyl-1,3-thiazol-2-yl)ethanamine]
21 | 88 to 90 | CC(C)C[C@@H](NC(=O)OC(C)(C)C)c1nc(-c2ccccc2)c[nH]1 [Example 124, tert-butyl (1R)-3-methyl-1-(4-phenyl-1H-imidazol-2-yl)butylcarbamate]
22 | 134 to 135 | CC(C)C[C@@H](NCc1ccccc1)c1nc(-c2ccccc2)c[nH]1 [Example 125, (1R)-N-benzyl-3-methyl-1-(4-phenyl-1H-imidazol-2-yl)-1-butanamine]
23 | 130 to 132 | CC(C)(C)OC(=O)NC(C)(C)c1nc(-c2ccccc2)c[nH]1 [Example 127, tert-butyl 1-methyl-1-(4-phenyl-1H-imidazol-2-yl)ethylcarbamate]

More lines, now with the values behind:

Row | Compound | melting point [°C]
24 | CN(CC#N)Cc1nc(-c2cc(C(C)(C)C)c(O)c(C(C)(C)C)c2)cs1 [Example 3, 2-[({4-[3,5-di(tert-butyl)-4-hydroxyphenyl]-1,3-thiazol-2-yl}methyl)(methyl)amino]acetonitrile] | 150 to 156
25 | CN(Cc1ccccc1)Cc1nc(-c2cc(C(C)(C)C)c(O)c(C(C)(C)C)c2)cs1 [Example 7, 4-(2-{[benzyl(methyl)amino]methyl}-1,3-thiazol-4-yl)-2,6-di(tert-butyl)phenol] | 165 to 170
26 | CCCCOC(=O)NCCc1nc(-c2ccc(-c3ccccc3)cc2)c[nH]1 [Example 31, butyl 2-(4-[1,1′-biphenyl]-4-yl-1H-imidazol-2-yl)ethylcarbamate] | 136.7
27 | CCCCC(=O)NCCc1nc(-c2ccc(-c3ccccc3)cc2)c[nH]1 [Example 32, N-[2-(4-[1,1′-biphenyl]-4-yl-1H-imidazol-2-yl)ethyl]pentanamide] | 166 to 167
28 | CCCCS(=O)(=O)NCCc1nc(-c2ccc(-c3ccccc3)cc2)c[nH]1 [Example 33, N-[2-(4-[1,1′-biphenyl]-4-yl-1H-imidazol-2-yl)ethyl]-1-butanesulphonamide] | 168.5
29 | CCCCNC(=O)NCCc1nc(-c2ccc(-c3ccccc3)cc2)c[nH]1 [Example 34] | 178
30 | Fc1ccc(-c2c[nH]c([C@@H](NC3CCC3)C3CCCCC3)n2)cc1 [Example 35, N-{(S)-cyclohexyl[4-(4-fluorophenyl)-1H-imidazol-2-yl]methyl}cyclobutanamine] | 170 to 172
31 | CCCCCCC(NC1CCCCC1)c1nc(C2CCCCC2)c[nH]1 (stereo not drawn) [Example 36, N-[1-(4-cyclohexyl-1H-imidazol-2-yl)heptyl]cyclohexanamine] | 172 to 174
32 | CC(C)CCCC(NC1CCCCC1)c1nc(-c2cccc(Br)c2)c[nH]1 (stereo not drawn) [Example 37, N-{1-[4-(3-bromophenyl)-1H-imidazol-2-yl]-5-methylhexyl}-N-cyclohexylamine] | 236 to 238
33 | CCCCCCC(NC1CCCCC1)c1nc(-c2ccc(F)cc2)c[nH]1 (stereo not drawn) [Example 38, N-{1-[4-(4-fluorophenyl)-1H-imidazol-2-yl]heptyl}cyclohexanamine] | 190 to 192
34 | CCCCCCN(Cc1ccccc1)Cc1nc(-c2ccc(-c3ccccc3)cc2)c[nH]1 [Example 41, N-benzyl-N-[(4-[1,1′-biphenyl]-4-yl-1H-imidazol-2-yl)methyl]-1-hexanamine] | 120 to 122
35 | CN(Cc1ccccc1)Cc1nc(-c2ccc(-c3ccccc3)cc2)c[nH]1 [Example 42, N-benzyl(4-[1,1′-biphenyl]-4-yl-1H-imidazol-2-yl)-N-methylmethanamine] | 106 to 108
36 | CN(C)Cc1nc(-c2ccccc2)cn1Cc1ccccc1 [Example 45, (1-benzyl-4-phenyl-1H-imidazol-2-yl)-N,N-dimethylmethanamine] | 78 to 80
37 | CCCCOC(=O)NCc1nc(-c2ccc(-c3ccccc3)cc2)c[nH]1 [Example 78, butyl (4-[1,1′-biphenyl]-4-yl-1H-imidazol-2-yl)methylcarbamate] | 130 to 132
38 | Fc1cccc(-c2c[nH]c([C@@H](NC3CCC3)C3CCCCC3)n2)c1 [Example 87, N-{(S)-cyclohexyl[4-(3-fluorophenyl)-1H-imidazol-2-yl]methyl}-cyclobutanamine] | 172 to 176
39 | c1ccc(CN[C@H](Cc2c[nH]c3ccccc23)c2nc(-c3ccccc3)c(-c3ccccc3)[nH]2)cc1 [Example 94, (1R)-N-benzyl-1-(4,5-diphenyl-1H-imidazol-2-yl)-2-(1H-indol-3-yl)ethanamine] | 146 to 148
40 | c1ccc(CNCc2nc(-c3ccccc3)cn2Cc2ccccc2)cc1 [Example 110, N-benzyl(1-benzyl-4-phenyl-1H-imidazol-2-yl)methanamine] | 60 to 62
41 | CC(C)(C)OC(=O)NC1(c2nc(-c3ccccc3)c[nH]2)CCCCC1 [Example 113, tert-butyl 1-(4-phenyl-1H-imidazol-2-yl)cyclohexylcarbamate] | 170 to 172
42 | c1ccc(CNC2(c3nc(-c4ccccc4)c[nH]3)CCCCC2)cc1 [Example 123, N-benzyl-1-(4-phenyl-1H-imidazol-2-yl)cyclohexanamine] | 114 to 116
